In patent US8778400B2, “Nanoparticle-stabilized capsule formulation for treatment of inflammation” (University of South Australia, priority 2008, dated 2014):
In brackets after ≈: the same amount, converted by molar mass.

Key:
[1] = Equilibrium solubility of celecoxib in phosphate buffer containing SLS; type: physicochemical; details: for folds of saturation volume (FSV): 900 ml media for 2 mg celecoxib; for solubility thermodynamic at 48 h: phosphate buffer, 37 °C, thermodynamic from solid
Experimental: The mixture was shaken in a thermostated mixer chamber (37° C.) for 48 h. Equilibrated samples were centrifuged at 9,400 g for 15 min to remove undissolved materials. The amount of celecoxib dissolved was assayed using the HPLC method outlined above.

[2] = In vitro dissolution study of celecoxib formulations (USP type II paddle); type: physicochemical; details: phosphate buffer, 0.5% SLS, 37° C.
Experimental: The in vitro dissolution study was performed in 900 ml of phosphate buffer (0.05 M, pH 7.2) containing 0, 0.05, and 0.5% (w/v) SLS, using USP 23 type II apparatus (paddle method) operating at 75±0.02 rpm. Each sample, containing ˜2 mg of celecoxib (equivalent to the amount used in the in vivo studies), was added into the dissolution medium maintained at 37±0.5° C. Aliquots of 3 ml were drawn at fixed time points and replaced with an equal volume of fresh dissolution medium. The drawn samples were centrifuged at 9,400 g for 15 min to remove undissolved materials. The supernatant was subjected to another cycle of centrifugation under the same conditions. An aliquot of 100 μl was taken from the middle portion of each centrifuged samples before diluted 2-fold with acetonitrile. […] The amount of celecoxib dissolved in the dissolution media was analysed by HPLC as described previously.
SLS was employed as a wetting and solubilising agent in the dissolution medium for simulating the sink effect in the gastrointestinal tract. The dissolution profiles of celecoxib from various formulations are illustrated in FIG. 3. […] The influence of silica nanoparticle layers of different hydrophobicity in controlling drug release from homogenised liquid emulsions has been previously investigated (Simovic et al., 2007). Here, the dissolution profiles of celecoxib from spray-dried capsules formulated with hydrophilic silica were obtained. Two dissolution parameters were evaluated from the study employing sink conditions: the dissolution efficiency (% DE), and the time to achieve 50% of drug dissolution (t50%) (Table 2). % DE is the area under the dissolution curve between two specified time points expressed as a percentage of the area of the rectangle described by 100% dissolution in the same time intervals, which can be calculated using Eq. (II): […]

[3] = Distribution ratio of celecoxib in Miglyol oil and phosphate buffer; type: physicochemical; details: Miglyol oil and blank phosphate buffer
[4] = Solubility of celecoxib in Miglyol oil; type: physicochemical; details: oil or lipid
[5] = cited from earlier work
[6] = after oral delivery; cited from earlier work
[7] = test system: prostaglandin E2; details: reported for humans, based on inhibitory effect on prostaglandin E2; cited from earlier work
[8] = In vitro dissolution of indomethacin under sink conditions (USP paddle); type: physicochemical; details: 25 mg indomethacin, phosphate buffer pH 7.2, sink conditions
Experimental: DSC was performed using TA Instruments Q100 differential scanning calorimeter. A 15 mg sample was heated in an aluminium pan at a rate of […] over a temperature range of 25-200° C., under a flow of dry nitrogen gas (80 ml/min). Instrument calibration was undertaken using an indium standard. Powder XRD patterns were obtained using Philips (PW 1050/25) X-ray diffractometer with CoKα radiation (45 kV, 35 mA). The samples were scanned between 10-50° (2θ) at a rate of 1.0°/min. […] The HPLC system (Hewlett Packard 1100) consisted of a series […] auto sampler and G1314A variable UV detector (Shimadzu Corporation). Separation was achieved using a LiChrospher 100 RP-18 analytical column (5 μm, 100 mm×4.6 mm i.d.). […] All chromatographic separations were performed at room temperature at a flow rate of 1 mL/min. The column eluent was monitored at a wavelength of 320 nm. […] The dissolution tests under sink conditions were performed using a USP paddle system (Vankel) and kept at a controlled 37° C. […] The paddle was rotated at 50 rpm. Samples (5 mL) were taken every 15 minutes for 3 h. […] The samples were measured using HPLC. […] With the conventional assumption that the rate and extent of drug dissolution directly reflects the concentration of readily absorbable drug in the intestinal lumen, it is proposed that capsules have the potential to enhance the oral absorption process. […]

folds of saturation volume (FSV) ([1]; 0% SLS) | folds of saturation volume (FSV) ([1]; 0.05% SLS) | folds of saturation volume (FSV) ([1]; 0.25% SLS) | folds of saturation volume (FSV) ([1]; 0.5% SLS) | folds of saturation volume (FSV) ([1]; 1.0% SLS) | solubility thermodynamic at 48 h ([1]; pH 7.2, aqueous buffer, phosphate buffer pH 7.2, 0% SLS) [µg/mL] | solubility thermodynamic at 48 h ([1]; pH 7.2, aqueous with cosolvent or surfactant or cyclodextrin, 0.05% SLS) [µg/mL] | solubility thermodynamic at 48 h ([1]; pH 7.2, aqueous with cosolvent or surfactant or cyclodextrin, 0.25% SLS) [µg/mL] | solubility thermodynamic at 48 h ([1]; pH 7.2, aqueous with cosolvent or surfactant or cyclodextrin, 0.5% SLS) [µg/mL] | solubility thermodynamic at 48 h ([1]; pH 7.2, aqueous with cosolvent or surfactant or cyclodextrin, 1.0% SLS) [µg/mL] | t50% (time to achieve 50% of drug dissolution) [2] [min] | Dissolution efficiency (% DE) ([2]; t = 5 min) [%] | Dissolution efficiency (% DE) ([2]; t = 15 min) [%] | Dissolution efficiency (% DE) ([2]; t = 180 min) [%] | distribution ratio (log D) [3] | solubility [4] [µg/mL] | t50% (time taken to achieve 50% of drug dissolution) [8] [min] | Structure (SMILES) | log P [5] | Tmax [6] | minimum effective pain-relieving plasma concentration [7] [ng/mL]
0.9 | 1.0 | 1.4 | 3.6 | 53.6 | 2.11 ± 0.01 (≈ 5.53 µM) | 2.33 ± 0.15 (≈ 6.11 µM) | 3.2 ± 0.16 (≈ 8.39 µM) | 8 ± 0.39 (≈ 21 µM) | 119 ± 29 (≈ 312 µM) | 144.8 | 8.9 ± 1 | 24.3 ± 5 | 48.9 ± 3 | 3.7 | ~10000 (≈ 26200 µM) |  | Cc1ccc(-c2cc(C(F)(F)F)nn2-c2ccc(S(N)(=O)=O)cc2)cc1 [celecoxib, 4-[5-(4-methylphenyl)-3-(trifluoromethyl)pyrazol-1-yl]benzenesulfonamide] | ≈ 3.5 | approximately three | ~155
 |  |  |  |  |  |  |  |  |  |  |  |  |  |  |  | 58.8 ± 0.5 | COc1ccc2c(c1)c(CC(=O)O)c(C)n2C(=O)c1ccc(Cl)cc1 [Indomethacin, 1-(4-chlorobenzoyl)-5-methoxy-2-methyl-1-H-indole-3-acetic acid] |  |  | 
